Reference: article PMC5085249, “The Diguanylate Cyclase HsbD Intersects with the HptB Regulatory Cascade to Control Pseudomonas aeruginosa Biofilm and Motility” (PLoS Genetics, 2016)

Biological target: T1, HsbD (PA3343) (Pseudomonas aeruginosa, UniProt Q9HYQ2)
T1 construct: His-HsbD overexpressed in E. coli BL21(DE3), whole-cell lysate; native protein 389 aa, six predicted TM domains (52-206), GGDEF domain 252-389; tag kept
Experiment: DRaCALA (nitrocellulose, […]-labelled ligand)
Type: binding
Conditions: 4 nM 32P-c-di-GMP; E. coli whole-cell lysate; 40 mM Tris pH 7.5, 100 mM NaCl, 10 mM MgCl2; allosteric inhibitory I-site; labelled compound

T1 sequence (Q9HYQ2 entry or part of it): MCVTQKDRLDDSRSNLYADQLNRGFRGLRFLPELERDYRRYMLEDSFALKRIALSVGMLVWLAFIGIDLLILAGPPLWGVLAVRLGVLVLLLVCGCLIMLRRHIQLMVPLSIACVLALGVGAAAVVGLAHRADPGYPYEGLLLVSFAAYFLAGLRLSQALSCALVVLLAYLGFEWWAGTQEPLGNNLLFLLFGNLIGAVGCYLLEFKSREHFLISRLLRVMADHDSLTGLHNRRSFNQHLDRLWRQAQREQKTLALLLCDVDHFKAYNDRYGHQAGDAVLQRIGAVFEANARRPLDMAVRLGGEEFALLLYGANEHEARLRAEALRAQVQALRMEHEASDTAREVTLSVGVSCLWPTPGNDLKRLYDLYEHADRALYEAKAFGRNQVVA

In the case of `Nc1nc2c(ncn2[C@@H]2O[C@@H]3COP(=O)(O)O[C@H]4[C@@H](O)[C@H](n5cnc6c(=O)[nH]c(N)nc65)O[C@@H]4COP(=O)(O)O[C@H]3[C@H]2O)c(=O)[nH]1` [c-di-GMP], the fraction bound is reported as “Significant c-di-GMP binding was observed with the construct encoding wild-type HsbD”.
